This is an account of results in patent US20240209011A1, “HETEROAROMATIC PHOSPHONIUM SALTS FOR TREATING CANCER” (FLORATEK PHARMA S.A., priority 2021, published 2024).

Broadly, the Kd is the equilibrium constant for the complex coming apart. Low values mean a tighter complex, high ones a looser complex. As usually defined, the IC50 is the concentration needed to halve the response being measured. Read a high IC50 as weaker potency in that assay.

The target in one assay is T1, ADCK3 (Homo sapiens, UniProt Q8NI60).
T1 construct: purchased Eurofins (KINOMEscan); host or cells: T7 phage in BL21-derived E. coli, or HEK-293
The experiment in a line: KINOMEscan competition binding assay, Kd. To be noted: 11-point 3-fold dilution series. The protocol: Selected compounds were screened for kinase inhibition using the KINOMEscan™ assay (Eurofins) which is based on a competition binding assay that quantitatively measures the ability of a compound to compete with an immobilized, active-site directed ligand. The assay was performed by combining three components: DNA-tagged kinase; immobilized ligand; and the test compound. The ability of the test compound to compete with the immobilized ligand was measured via quantitative PCR of the DNA tag.
Kinase-tagged T7 phage strains were prepared in an E. coli host derived from the BL21 strain. E. coli were grown to log-phase and infected with T7 phage and incubated with shaking at 32° C. until lysis. The lysates were centrifuged and filtered to remove cell debris. The remaining kinases were produced in HEK-293 cells and subsequently tagged with DNA for qPCR detection. Streptavidin-coated magnetic beads were treated with biotinylated small molecule ligands for 30 minutes at room temperature to generate affinity resins for kinase assays. The liganded beads were blocked with excess biotin and washed with blocking buffer (SeaBlock (Pierce), 1% BSA, 0.05% Tween 20, 1 mM DTT) to remove unbound ligand and to reduce non-specific binding. Binding reactions were assembled by combining kinases, liganded affinity beads, and test compounds in 1× binding buffer (20% SeaBlock, 0.17×PBS, 0.05% Tween 20, 6 mM DTT). Test compounds were prepared as 111× stocks in 100% DMSO. Kds were determined using an 11-point 3-fold compound dilution series with three DMSO control points. All compounds for Kd measurements are distributed by acoustic transfer (non-contact dispensing) in 100% DMSO. The compounds were then diluted directly into the assays such that the final concentration of DMSO was 0.9%. All reactions performed in polypropylene 384-well plate. Each was a final volume of 0.02 ml. The assay plates were incubated at room temperature with shaking for 1 hour and the affinity beads were washed with wash buffer (1×PBS, 0.05% Tween 20). The beads were then resuspended in elution buffer (1×PBS, 0.05% Tween 20, 0.5 μM nonbiotinylated affinity ligand) and incubated at room temperature with shaking for 30 minutes. The kinase concentration in the eluates was measured by qPCR.
Binding constants (Kds) were calculated with a standard dose-response curve using the Hill equation: Response=Background+[Signal−Background/i+(Kd^Hill Slope/Dose^Hill Slope)]. The Hill Slope was set to −1. Curves were fitted using a non-linear least square fit with the Levenberg-Marquardt algorithm.

The next assay concerns BR-05-0399. The experiment in a line: PDX-derived cell culture cytotoxicity (CellTiter-Glo). To be noted: 120 h; breast PDX BR-05-0399; absolute IC50; 5 days. The class given is cell-based. The protocol:
(§1) PDX-derived cell cultures were obtained from tumors explanted from mice and isolated by mechanical and enzymatic dissociation. […] Cells were harvested and seeded in 96-wells plates at a density of 1.25 to 5×10^3 cells/well for cytotoxicity assays. Cells were incubated 48 h at 37° C. prior to addition of test molecules and vehicle (DMSO, 0.1%) at desired final concentrations. Cell viability was assessed before drugs' addition (To) and 5 days after test molecules addition by measuring ATP cell content using CellTiter-Glo® Luminescent Cell Viability Assay (Promega) according to the manufacturer's instructions. Luciferase activity was measured on a luminometer (PerkinElmer® EnVision™). Each concentration of compounds was tested in triplicate.
(§2) Viability was calculated as a percentage of ATP value compared to vehicle treated controls.
(§3) For PDX primary cell cultures, the tumour tissue was washed with PBS containing antibiotic-antimycotic and non-tumour tissue and necrotic tumour tissues were separated. The tumour tissue was transferred to a new dish and cut into 1-2 mm^3 fragments, resuspended in RPMI-1640 medium and centrifuged at 1,200 rpm for 6 min at room temperature. The pelleted material was resuspended with 15 mL of Tumour Cell Digestion Solution and incubated at 37° C. for 1 hour with agitation. Following further addition of media, centrifugation and passage through a […] cell strainer, the homogenous cell mixture was layered onto 15 mL of Ficoll-Paque PLUS in a 50 mL conical tube and centrifuged for 15 min at 1,600 rpm. The interface cells were collected, washed with media, separated by centrifugation at 1,200 rpm. The cell pellet was resuspended in serum free media supplemented with growth factors. 10,000 cells/wells were plated in a 96 well plate and incubated at 37° C., 5% CO2, 95% air and 100% relative humidity overnight. The cytotoxicity assay was conducted as above. IC50 values represent absolute IC50.

Another assay concerns CH-17-0098. The assay is described as above. To be noted: 120 h; bile duct PDX CH-17-0098; absolute IC50; 5 days. The class given is cell-based. The protocol: as §1, §2, §3
In another assay the test system is EN-11-0101. The description is as above. The class given is cell-based. To be noted: 120 h; endometrial PDX EN-11-0101; absolute IC50; 5 days. How it is done:
as §1, §2, §3

A further assay deals with ES-06-0122. The description is as above. The following applies: 120 h; esophagus PDX ES-06-0122; absolute IC50; 5 days. The class given is cell-based. The protocol:
as §1, §2, §3

Another assay relates to HN-13-0020. The description is as above. The class given is cell-based. The following applies: 120 h; head and neck PDX HN-13-0020; absolute IC50; 5 days. How it is done:
as §1, §2, §3

Another assay deals with KI-12-0062. The description is as above. The class given is cell-based. To be noted: 120 h; kidney PDX KI-12-0062; absolute IC50; 5 days. How it is done: as §1, §2, §3
Another assay has as its system LU-01-0004. The assay is described as above. To be noted: 120 h; lung PDX LU-01-0004; absolute IC50; 5 days. The class given is cell-based. The protocol:
as §1, §2, §3

In a further assay the test system is LU-01-0025. Described as above. The class given is cell-based. The following applies: 120 h; lung PDX LU-01-0025; absolute IC50; 5 days. How it is done: as §1, §2, §3
The subject of a further assay is LU-01-0027. The description is as above. The class given is cell-based. To be noted: 120 h; lung PDX LU-01-0027; absolute IC50; 5 days. How it is done:
as §1, §2, §3

For the next assay, the system named is PC-07-0045. The assay is described as above. The class given is cell-based. The following applies: 120 h; pancreatic PDX PC-07-0045; absolute IC50; 5 days. The protocol:
as §1, §2, §3

For a further assay, the system named is PC-07-0059. The assay is described as above. The class given is cell-based. To be noted: 120 h; pancreatic PDX PC-07-0059; absolute IC50; 5 days. How it is done: as §1, §2, §3
The next assay deals with ST-02-0012. The assay is described as above. The class given is cell-based. The following applies: 120 h; stomach PDX ST-02-0012; absolute IC50; 5 days. How it is done:
as §1, §2, §3

Another assay concerns pancreatic PDX. The experiment in a line: Activity against pancreatic PDX. The class given is cell-based. The following applies: pancreatic PDX growth; summary of Table 20. The protocol: as §1, §2, §3
In a further assay the test system is skin melanoma PDX. The experiment in a line: Activity against skin melanoma PDX. The class given is cell-based. To be noted: skin melanoma PDX growth; text summary of Table 22. How it is done: as §1, §2, §3

T1 sequence (Q8NI60 163-647): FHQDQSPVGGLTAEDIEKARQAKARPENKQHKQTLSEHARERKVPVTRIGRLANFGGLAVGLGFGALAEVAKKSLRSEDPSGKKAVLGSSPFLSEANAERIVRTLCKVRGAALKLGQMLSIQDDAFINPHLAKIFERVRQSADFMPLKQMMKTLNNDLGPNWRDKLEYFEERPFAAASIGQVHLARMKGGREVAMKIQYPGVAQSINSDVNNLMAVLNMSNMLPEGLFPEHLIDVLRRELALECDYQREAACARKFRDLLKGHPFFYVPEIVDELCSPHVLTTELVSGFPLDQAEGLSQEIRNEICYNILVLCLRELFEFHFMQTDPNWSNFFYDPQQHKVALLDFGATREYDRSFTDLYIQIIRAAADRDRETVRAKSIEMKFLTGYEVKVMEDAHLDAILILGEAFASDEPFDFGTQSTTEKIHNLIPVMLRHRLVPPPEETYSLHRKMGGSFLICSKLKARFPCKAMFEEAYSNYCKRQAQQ

On to `O=c1cc(-c2ccc(CCCC[P+](c3ccccc3)(c3ccccc3)c3ccccc3)cc2)oc2c(O)c(O)ccc12` [SND118, 4-[4-(7,8-dihydroxy-4-oxo-chromen-2-yl)phenyl]butyltriphenyl-phosphonium bromide], for which the Kd at ADCK3 turned out to be 1.5 µM.

`O=c1cc(-c2ccc(CCCC[P+](c3ccccc3)(c3ccccc3)c3ccccc3)cc2)oc2c3c(ccc12)OCO3.[Br-]` [SND123, 4-[4-(6-oxo-[1,3]dioxolo[4,5-h]chromen-8-yl)phenyl]butyl-triphenylphosphonium bromide]: the IC50 in the assay with BR-05-0399 turned out to be 2.1 µM; with CH-17-0098, 0.72 µM; in the assay on EN-11-0101, 1.8 µM; with ES-06-0122, 4.5 µM; in the assay on HN-13-0020, 1.5 µM; in the assay with KI-12-0062 it was 3 µM. Further, the IC50 is 3 µM with LU-01-0004; 2.4 µM in the assay with LU-01-0025; 5.9 µM in the assay on LU-01-0027; 4 µM with PC-07-0045; 2.7 µM in the assay on PC-07-0059; 0.3 µM with ST-02-0012. Also, the IC50 in the assay on pancreatic PDX is under 20 µM; in the assay on skin melanoma PDX, under 10 µM. The same compound displayed a Kd at ADCK3 of 0.82 µM.

Consider `CCNC(=O)Oc1ccc2c(=O)cc(-c3ccc(CCCC[P+](c4ccccc4)(c4ccccc4)c4ccccc4)cc3)oc2c1OC(=O)NCC.[Br-]` [SND124, 4-[4-[7,8-Bis(ethylcarbamoyloxy)-4-oxo-chromen-2-yl]phenyl]-butyltriphenylphosphonium bromide], for which the 50% inhibitory concentration (IC50) in the assay with BR-05-0399 stood at 5.2 µM; in the assay on CH-17-0098, 6.1 µM; in the assay with EN-11-0101, 9.6 µM; in the assay on ES-06-0122, 8.5 µM; with HN-13-0020, 2 µM; in the assay with KI-12-0062, 8.5 µM. The IC50 in the assay on LU-01-0004 stood at 7.1 µM; in the assay with LU-01-0025, 4.2 µM; in the assay on LU-01-0027, 9.3 µM; with PC-07-0045 it was 7 µM; in the assay with PC-07-0059 it was 4.2 µM; with ST-02-0012 it was 8.2 µM. The IC50 in the assay with pancreatic PDX is under 20 µM; in the assay on skin melanoma PDX, under 10 µM.

With `CCNC(=O)Oc1ccc2c(=O)cc(-c3ccc(CCCC[P+](c4ccccc4)(c4ccccc4)c4ccccc4)cc3)oc2c1O.[Br-]` [SND126A, 4-[4-[7-(Ethylcarbamoyloxy)-8-hydroxy-4-oxo-chromen-2-yl]phenyl]butyltriphenylphosphonium bromide], the IC50 was found to be 6.5 µM with BR-05-0399; 8.5 µM in the assay with CH-17-0098; 10.2 µM in the assay on EN-11-0101; 8.3 µM in the assay with ES-06-0122; 2.7 µM with HN-13-0020; 11 µM with KI-12-0062. Moreover, the IC50 in the assay on LU-01-0004 turned out to be 8.4 µM; with LU-01-0025, 5.3 µM; with LU-01-0027, 12 µM; with PC-07-0045, 7.7 µM; in the assay with PC-07-0059 it was 4.9 µM; in the assay on ST-02-0012 it was 8.9 µM. Further, the concentration for half-maximal inhibition (IC50) with pancreatic PDX was under 20 µM; in the assay with skin melanoma PDX, under 10 µM.

Consider `COc1c(O)ccc2c(=O)cc(-c3ccc(CCCC[P+](c4ccccc4)(c4ccccc4)c4ccccc4)cc3)oc12.[Br-]` [SND140, (4-(4-(7-hydroxy-8-methoxy-4-oxo-4H-chromen-2-yl)phenyl)butyl)triphenylphosphonium bromide], for which the IC50 was found to be 6 µM with BR-05-0399; 4.98 µM with CH-17-0098; 6.2 µM with EN-11-0101; 13.5 µM with ES-06-0122; 9.1 µM in the assay with HN-13-0020; 16.8 µM in the assay on KI-12-0062. Besides, the IC50 was found to be 11.7 µM with LU-01-0004; 10.5 µM in the assay with LU-01-0025; 16 µM with LU-01-0027; 13.2 µM in the assay with PC-07-0045; 20.4 µM in the assay on PC-07-0059; 4.9 µM in the assay on ST-02-0012. Further, the IC50 with pancreatic PDX is under 20 µM; with skin melanoma PDX it was under 10 µM. For the same compound, the dissociation constant (Kd) at ADCK3 was determined as 0.62 µM.
